Assays:
Mab ATCC 19977 [1] = assay: MIC testing against Mab ATCC 19977, single agent and combinations; format: cell-based, Mycobacterium abscessus
Description: MICs were determined in duplicate following Clinical Laboratory Standards Institute ([52]) guidelines using Middlebrook 7H9 broth supplemented with 10% (vol/vol) oleic acid-albumin-dextrose-catalase (OADC) and 0.05% (vol/vol) Tween 80, with an inoculum of 5 × 10⁵ CFU/mL. MIC testing of two C5α-substituted carbapenems was conducted both individually and in combination with cephalosporins (cefuroxime and ceftaroline), penicillins (amoxicillin), or BLIs (avibactam or durlobactam + sulbactam). Avibactam, durlobactam, cefuroxime, ceftaroline, and amoxicillin were fixed at concentrations of 4, 1, 2, 4, and 4 mg/L, respectively. […] The MIC was defined as the lowest antibiotic concentration that inhibited visible bacterial growth following 48 h of incubation at 30°C.

[2] = system: Mab strain ATCC 19977 and three clinical isolates (Mab122, Mab686, and UH01); assay: Static concentration time-kill (SCTK) assay; format: cell-based, Mycobacterium abscessus; conditions: imipenem alone (Fig. S1)
Description: SCTK studies were conducted over 5 days in Middlebrook 7H9 broth supplemented with 10% (vol/vol) OADC, 0.2% (vol/vol) glycerol, and 0.05% (vol/vol) Tween 80 in duplicate. The efficacy of JDB/NA-1-157 and JDB/NA-208 was evaluated using Mab strain ATCC 19977 and three clinical isolates (Mab122, Mab686, and UH01) at an initial inoculum of 10^5.5–10^6.3 CFU/mL. […] Bacterial killing was assessed across a wide range of concentrations for JDB/NA-1-157 and JDB/NA-1-208 individually (0.0625–64.0 mg/L).
For the combination study, the concentrations of JDB/NA-1-157 and JDB/NA-1-208 were selected based on MIC results and time-killing profiles of the single-drug study, while the concentrations of other β-lactams and BLIs were chosen based on clinically relevant levels, determined from the predicted average unbound steady-state concentrations (fCss,avg) in plasma at clinically relevant doses ([27]). The drug concentrations used were JDB/NA-1-157, 1 mg/L; JDB/NA-1-208, 8 mg/L; imipenem, 12 mg/L; ceftaroline, 8 mg/L; cefuroxime, 8 mg/L; amoxicillin, 2 mg/L; avibactam, 4 mg/L; durlobactam, 12 mg/L; amikacin, 12 mg/L; clarithromycin, 0.3 mg/L; and cefoxitin, 7 mg/L. The SOC regimen was included for comparison of efficacy. On day 3, the broth was replaced with fresh broth containing the corresponding drug concentrations. For viable cell counts, 100 µL of undiluted or appropriately diluted samples was subcultured on Middlebrook 7H10 agar plates supplemented with 1% (vol/vol) OADC, 0.2% glycerol, and 0.05% (vol/vol) Tween 80. All samples were washed twice with sterile 0.9% saline prior to serial dilution or plating.

LDT5 = LDT5 (Mycobacteroides abscessus, UniProt B1MHQ4); assay: Apparent inhibition constant (nitrocefin, Dixon plot); format: biochemical, Mycobacterium abscessus; conditions: read-out: Ki,app
Sequence of LDT5 (B1MHQ4 entry or part of it): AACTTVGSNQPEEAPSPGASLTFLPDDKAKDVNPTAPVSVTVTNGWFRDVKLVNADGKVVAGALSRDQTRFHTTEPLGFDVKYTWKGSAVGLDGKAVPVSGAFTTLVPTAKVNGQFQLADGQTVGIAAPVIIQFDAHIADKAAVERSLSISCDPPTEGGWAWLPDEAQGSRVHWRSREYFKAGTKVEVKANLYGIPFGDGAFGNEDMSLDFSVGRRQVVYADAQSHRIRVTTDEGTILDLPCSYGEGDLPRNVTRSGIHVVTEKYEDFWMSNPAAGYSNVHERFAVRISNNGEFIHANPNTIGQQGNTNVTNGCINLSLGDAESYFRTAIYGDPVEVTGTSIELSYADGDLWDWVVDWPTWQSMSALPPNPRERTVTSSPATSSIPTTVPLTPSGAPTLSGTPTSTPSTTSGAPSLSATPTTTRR
Description: (§1) Steady-state kinetic studies with JDB/NA-1-157 and JDB/NA-1-208 were performed using purified LDTs and PBPs, including LDT1–5, PBP-B, PBP-lipo, and D,D-carboxypeptidase. The assays were conducted on a BioTek Synergy2 multimode reader equipped with Gen5 software. To determine the Michaelis constant (Km^NCF) for each LDT and PBP, a wide range of NCF concentrations was tested, while the enzyme concentrations were fixed. Absorbance changes at 482 nm were monitored over 10 min. Steady-state kinetic parameters (Vmax and Km) were derived by fitting the experimental data to the Henri–Michaelis–Menten equation using nonlinear least-squares regression in GraphPad Prism version 9. The reaction velocity (v) at a given substrate concentration ([S]) was calculated using equation 2: […]
(§2) The apparent inhibition constants (Ki,app) for JDB/NA-1-157 and JDB/NA-1-208 were determined under the following conditions: an NCF concentration of 5 × Km, fixed concentrations of LDT or PBP enzymes, and varying concentrations of JDB/NA-1-157 and JDB/NA-1-208. Absorbance changes at 482 nm were monitored over a 30 min period for each inhibitor concentration. The data were linearized using a Dixon plot, which involves plotting the reciprocal of the absorbance change (1/ΔA) against the concentrations of JDB/NA-1-157 or JDB/NA-1-208. Apparent Ki,app values were derived from the intersection points on the Dixon plot and were subsequently corrected for substrate concentration and enzyme affinity using equation 3:
(§3) (3) Ki,app=observed Ki,app/1+[NCF]/Km NCF.

PonA2 = PonA2 (Mycobacteroides abscessus, UniProt B1MFV7); assay: as above; format: biochemical, Mycobacterium abscessus; conditions: Ki,app
Sequence of PonA2 (B1MFV7 entry or part of it): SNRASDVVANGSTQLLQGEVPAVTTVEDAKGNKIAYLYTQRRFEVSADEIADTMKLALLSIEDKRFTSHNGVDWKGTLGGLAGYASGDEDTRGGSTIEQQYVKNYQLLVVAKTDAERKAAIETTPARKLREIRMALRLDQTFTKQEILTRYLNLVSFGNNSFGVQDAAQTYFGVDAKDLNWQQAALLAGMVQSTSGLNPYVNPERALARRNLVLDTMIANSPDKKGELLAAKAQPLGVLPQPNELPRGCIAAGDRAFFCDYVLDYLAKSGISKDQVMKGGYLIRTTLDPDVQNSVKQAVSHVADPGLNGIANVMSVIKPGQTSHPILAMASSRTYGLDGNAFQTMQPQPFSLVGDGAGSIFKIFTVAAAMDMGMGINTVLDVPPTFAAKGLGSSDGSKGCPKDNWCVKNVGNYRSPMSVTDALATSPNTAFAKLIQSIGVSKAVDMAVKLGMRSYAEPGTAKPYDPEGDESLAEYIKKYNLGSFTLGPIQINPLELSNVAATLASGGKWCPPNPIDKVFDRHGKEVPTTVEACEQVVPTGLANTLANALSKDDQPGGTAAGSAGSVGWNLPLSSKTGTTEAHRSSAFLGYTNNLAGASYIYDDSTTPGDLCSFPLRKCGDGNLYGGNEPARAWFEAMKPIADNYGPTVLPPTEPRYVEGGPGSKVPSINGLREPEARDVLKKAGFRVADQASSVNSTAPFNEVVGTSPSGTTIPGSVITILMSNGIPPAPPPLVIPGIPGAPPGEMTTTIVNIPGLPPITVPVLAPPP
Description: as §1, §2, §3

PBP-lipo = target: T1, PBP-lipo (Mycobacteroides abscessus, UniProt B1MDC3); assay: as above; format: biochemical; conditions: Ki,app
T1 construct: made in house; host or cells: Escherichia coli BL21 (DE3)
T1 sequence (B1MDC3 entry or part of it): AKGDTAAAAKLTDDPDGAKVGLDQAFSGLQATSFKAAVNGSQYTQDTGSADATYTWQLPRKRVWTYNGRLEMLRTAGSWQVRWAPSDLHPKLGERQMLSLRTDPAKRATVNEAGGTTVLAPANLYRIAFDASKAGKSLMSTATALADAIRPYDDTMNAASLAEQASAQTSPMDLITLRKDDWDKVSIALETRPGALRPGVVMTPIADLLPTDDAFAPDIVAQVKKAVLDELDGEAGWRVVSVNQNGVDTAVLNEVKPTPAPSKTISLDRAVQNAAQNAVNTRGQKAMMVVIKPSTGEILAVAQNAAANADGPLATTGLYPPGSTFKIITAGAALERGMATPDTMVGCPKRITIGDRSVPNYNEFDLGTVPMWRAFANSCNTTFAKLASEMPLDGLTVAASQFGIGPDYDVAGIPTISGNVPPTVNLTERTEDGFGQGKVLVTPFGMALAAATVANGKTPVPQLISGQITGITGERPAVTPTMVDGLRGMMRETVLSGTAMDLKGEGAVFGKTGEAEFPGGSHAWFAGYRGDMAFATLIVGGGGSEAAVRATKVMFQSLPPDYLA
Description: as §1, §2, §3

PBP B = PBP B (Mycobacteroides abscessus, UniProt B1MP31); assay: as above; format: biochemical; conditions: read-out: Ki,app (converted)
Sequence of PBP B (B1MP31 entry or part of it): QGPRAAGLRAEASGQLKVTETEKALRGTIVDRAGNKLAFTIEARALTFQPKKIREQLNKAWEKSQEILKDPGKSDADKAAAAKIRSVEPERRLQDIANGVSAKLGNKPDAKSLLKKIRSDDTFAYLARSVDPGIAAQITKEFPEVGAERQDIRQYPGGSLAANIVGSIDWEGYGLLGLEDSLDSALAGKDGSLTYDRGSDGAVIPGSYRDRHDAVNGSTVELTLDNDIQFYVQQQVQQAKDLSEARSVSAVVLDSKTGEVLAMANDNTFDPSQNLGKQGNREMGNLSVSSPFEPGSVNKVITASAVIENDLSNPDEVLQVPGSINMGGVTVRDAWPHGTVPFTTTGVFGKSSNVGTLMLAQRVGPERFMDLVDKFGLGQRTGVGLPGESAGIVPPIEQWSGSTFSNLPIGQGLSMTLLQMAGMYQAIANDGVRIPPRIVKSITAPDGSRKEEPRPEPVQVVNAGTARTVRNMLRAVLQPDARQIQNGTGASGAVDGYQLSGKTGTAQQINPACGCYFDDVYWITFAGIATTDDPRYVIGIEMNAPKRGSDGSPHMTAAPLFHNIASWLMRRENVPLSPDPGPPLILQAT
Description: as §1, §2, §3

Mab ATCC 19977 [3] = assay: MIC testing with drugs pre-incubated in 7H9 broth (effect of drug instability); format: cell-based, Mycobacterium abscessus; conditions: for MIC: Mycobacteroides abscessus, ATCC19977
Description: MICs were determined in duplicate following Clinical Laboratory Standards Institute ([52]) guidelines using Middlebrook 7H9 broth supplemented with 10% (vol/vol) oleic acid-albumin-dextrose-catalase (OADC) and 0.05% (vol/vol) Tween 80, with an inoculum of 5 × 10⁵ CFU/mL. MIC testing of two C5α-substituted carbapenems was conducted both individually and in combination with cephalosporins (cefuroxime and ceftaroline), penicillins (amoxicillin), or BLIs (avibactam or durlobactam + sulbactam). Avibactam, durlobactam, cefuroxime, ceftaroline, and amoxicillin were fixed at concentrations of 4, 1, 2, 4, and 4 mg/L, respectively. Amoxicillin was combined with 4 mg/L avibactam, as it is highly susceptible to hydrolysis by BlaMab ([12], [15], [25]). The MIC was defined as the lowest antibiotic concentration that inhibited visible bacterial growth following 48 h of incubation at 30°C.

[4] = Thermal stability in 7H9 broth at 30°C; conditions: for Degradation percentage: 24 h
Description: The stability of the two compounds in 7H9 broth was assessed at 30°C at drug concentrations of 10, 50, and 100 mg/L, with each condition tested in triplicate. Absorbance at 240 nm was measured every 2 h over a 24 h period using a BioTek Synergy2 multimode reader, with data analyzed via Gen5 software to monitor degradation or changes in stability. To evaluate the impact of thermal instability, MIC tests were performed using Mab ATCC 19977. Compounds were tested at time points of 0 h (no incubation) and 6, 24, and 48 h of incubation at 30°C. Imipenem and meropenem, known to be thermally unstable β-lactams, were included as positive controls. The MIC results were recorded after 48 h of incubation. Detailed MIC testing protocols were identical to those described below.

LDT1 = LDT1 (Mycobacteroides abscessus, UniProt B1MDC1); assay: Apparent inhibition constant (nitrocefin, Dixon plot); format: biochemical, Mycobacterium abscessus; conditions: Ki,app
Sequence of LDT1 (B1MDC1 entry or part of it): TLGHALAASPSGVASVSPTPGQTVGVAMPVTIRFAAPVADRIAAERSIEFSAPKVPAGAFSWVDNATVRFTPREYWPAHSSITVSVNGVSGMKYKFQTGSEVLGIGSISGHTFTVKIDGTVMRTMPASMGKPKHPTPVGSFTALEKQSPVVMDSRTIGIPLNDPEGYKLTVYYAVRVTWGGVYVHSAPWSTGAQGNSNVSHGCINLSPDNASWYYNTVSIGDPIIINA
Description: as §1, §2, §3

LDT2 = LDT2 (Mycobacteroides abscessus, UniProt B1MMQ4); assay: as above; format: biochemical, Mycobacterium abscessus; conditions: Ki,app
Sequence of LDT2 (B1MMQ4 entry or part of it): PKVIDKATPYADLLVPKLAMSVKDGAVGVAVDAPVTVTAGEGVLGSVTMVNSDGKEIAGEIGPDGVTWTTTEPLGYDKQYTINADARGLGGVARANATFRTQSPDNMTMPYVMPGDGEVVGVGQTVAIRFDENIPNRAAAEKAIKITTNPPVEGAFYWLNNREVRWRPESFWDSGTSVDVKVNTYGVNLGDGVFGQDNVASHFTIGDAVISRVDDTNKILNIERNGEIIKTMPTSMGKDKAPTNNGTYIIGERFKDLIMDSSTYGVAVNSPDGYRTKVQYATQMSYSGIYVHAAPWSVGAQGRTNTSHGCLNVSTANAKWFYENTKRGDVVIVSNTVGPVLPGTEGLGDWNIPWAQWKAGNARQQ
Description: as §1, §2, §3

[5] = system: C[C@@H](O)[C@H]1C(=O)N2C(C(=O)O)=C(S[C@@H]3CN[C@H](C(=O)N(C)C)C3)C[C@]12C; assay: Steady-state kinetics of hydrolysis by BlaMab; format: biochemical, Mycobacterium abscessus; conditions: other: best-fit value (95% confidence interval), MES buffer pH 6.4, room temperature
[6] = Mycobacteroides abscessus, ATCC19977, 48 h, alone (single agent), read-out: MIC
[7] = drug incubated 6 h in 7H9 broth at 30°C
[8] = drug incubated 24 h in 7H9 broth at 30°C
[9] = drug incubated 48 h in 7H9 broth at 30°C

Q: Which MIC (Mab ATCC 19977 [1]; [6]) does the source give for CC1(C)S[C@@H]2[C@H](NC(=O)[C@H](N)c3ccc(O)cc3)C(=O)N2[C@H]1C(=O)O [AMX, amoxicillin, reference compound] here?
A: 128 µg/mL

Q: And the MIC (Mab ATCC 19977 [1]; no carbapenem, with AVI)?
A: 32 µg/mL

Q: Which MIC (Mab ATCC 19977 [1]; [6]) does the source give for NC(=O)[C@@H]1CC[C@@H]2CN1C(=O)N2OS(=O)(=O)O [AVI, avibactam, reference compound] here?
A: > 128 µg/mL

Q: For CCO/N=C(\C(=O)N[C@@H]1C(=O)N2C(C(=O)[O-])=C(Sc3nc(-c4cc[n+](C)cc4)cs3)CS[C@H]12)c1nsc(N)n1 [CFT, ceftaroline, reference compound], which MIC (Mab ATCC 19977 [1]; [6]) is on record?
A: 16 µg/mL

Q: Which MIC (Mab ATCC 19977 [1]; [6]) does the source give for CO/N=C(\C(=O)N[C@@H]1C(=O)N2C(C(=O)O)=C(COC(N)=O)CS[C@H]12)c1ccco1 [CXM, cefuroxime, reference compound] here?
A: 4 µg/mL

Q: With CC1=C[C@@H]2CN(C(=O)N2OS(=O)(=O)O)[C@@H]1C(N)=O [DUR, durlobactam, reference compound] as the molecule, how does the MIC (Mab ATCC 19977 [1]; [6]) read?
A: 8 µg/mL

Q: What does the source list for C[C@@H](O)[C@H]1C(=O)N2C(C(=O)O)=C(SCCN=CN)C[C@H]12 [IPM, imipenem]?
A: log10 reduction in bacterial load [2]: ~1.5 log10; Ki (LDT5): 100000 nM; Ki (PonA2): 3140 nM; Ki (PBP-lipo): 1840 nM; Ki (PBP B): 1470 nM; MIC (Mab ATCC 19977 [3]; [7]): 1 µg/mL; MIC (Mab ATCC 19977 [3]; [8]): 32 µg/mL; MIC (Mab ATCC 19977 [3]; [9]): > 64 µg/mL; MIC (Mab ATCC 19977 [3]; no incubation of drug): 1 µg/mL; MIC fold increase after 24 h incubation (Mab ATCC 19977 [3]; drug incubated 24 h): 32 fold; MIC fold increase after 48 h incubation (Mab ATCC 19977 [3]; drug incubated 48 h): > 64 fold; additional degradation by 24 h [4]: approximately 25%; degradation within the first 6 h [4]: approximately 25%; half-life ([4]; 7H9 broth): 10 h; Degradation percentage ([4]; 10 mg/L): 67.8%; Degradation percentage ([4]; 50 mg/L): 51.4%; Degradation percentage ([4]; 100 mg/L): 49.3%

Q: What does the source list for C[C@@H](O)[C@H]1C(=O)N2C(C(=O)O)=C(S[C@@H]3CN[C@H](C(=O)N(C)C)C3)[C@H](C)[C@H]12 [MEM, meropenem]?
A: Ki (LDT1): 206 nM; Ki (LDT2): 31.3 nM; Ki (PonA2): 143 nM; Ki (PBP B): 965 nM; MIC (Mab ATCC 19977 [3]; [7]): 4 µg/mL; MIC (Mab ATCC 19977 [3]; [8]): 16 µg/mL; MIC (Mab ATCC 19977 [3]; [9]): 16 µg/mL; MIC (Mab ATCC 19977 [3]; no incubation of drug): 4 µg/mL; MIC rise after 24 and 48 h incubation vs nonincubated (Mab ATCC 19977 [3]; drug incubated 24 and 48 h): fourfold; Degradation percentage ([4]; 10 mg/L): 11.7%; Degradation percentage ([4]; 50 mg/L): 15.8%; Degradation percentage ([4]; 100 mg/L): 16.1%

Q: Which results are given for “BlaMab (Mycobacteroides abscessus ATCC 19977)”?
A: Km [5]: 9.054 (3.677–17.50) µM; kcat [5]: 0.03 s⁻¹; kcat/Km [5]: 3000 M⁻¹ s⁻¹

Reference: article PMC12326981, “Novel C5α-substituted carbapenems enhance Mycobacterium abscessus killing via selective target binding and reduced hydrolysis by BlaMab” (Antimicrobial Agents and Chemotherapy, 2025)
